Patent publication US20240384268A1, “Oligonucleotides” (Hudson Institute of Medical Research, priority 2021, published 2024)
In the oligonucleotide strings, read from the 5' end, every base follows the letter of its sugar. An asterisk marks phosphorothioate; unmarked linkages are phosphodiester. Other units and linkages are bracketed, terminal groups are in braces. A string of capitals states the bases alone. d = 2'-deoxy (DNA); m = 2'-O-methyl

molecular target: T1, TLR8 (Homo sapiens, UniProt Q9NR97); test: HEK-TLR8 NF-κB-luciferase reporter, R848 or Motolimod stimulation (potentiation or inhibition); type: cell-based; design: expressed in transfected cells; host or cells: 293XLhTLR8 (HEK293); settings: HEK-TLR8; 500 nM ASO ~30 min; R848 overnight
T1 sequence (Q9NR97 27-1041): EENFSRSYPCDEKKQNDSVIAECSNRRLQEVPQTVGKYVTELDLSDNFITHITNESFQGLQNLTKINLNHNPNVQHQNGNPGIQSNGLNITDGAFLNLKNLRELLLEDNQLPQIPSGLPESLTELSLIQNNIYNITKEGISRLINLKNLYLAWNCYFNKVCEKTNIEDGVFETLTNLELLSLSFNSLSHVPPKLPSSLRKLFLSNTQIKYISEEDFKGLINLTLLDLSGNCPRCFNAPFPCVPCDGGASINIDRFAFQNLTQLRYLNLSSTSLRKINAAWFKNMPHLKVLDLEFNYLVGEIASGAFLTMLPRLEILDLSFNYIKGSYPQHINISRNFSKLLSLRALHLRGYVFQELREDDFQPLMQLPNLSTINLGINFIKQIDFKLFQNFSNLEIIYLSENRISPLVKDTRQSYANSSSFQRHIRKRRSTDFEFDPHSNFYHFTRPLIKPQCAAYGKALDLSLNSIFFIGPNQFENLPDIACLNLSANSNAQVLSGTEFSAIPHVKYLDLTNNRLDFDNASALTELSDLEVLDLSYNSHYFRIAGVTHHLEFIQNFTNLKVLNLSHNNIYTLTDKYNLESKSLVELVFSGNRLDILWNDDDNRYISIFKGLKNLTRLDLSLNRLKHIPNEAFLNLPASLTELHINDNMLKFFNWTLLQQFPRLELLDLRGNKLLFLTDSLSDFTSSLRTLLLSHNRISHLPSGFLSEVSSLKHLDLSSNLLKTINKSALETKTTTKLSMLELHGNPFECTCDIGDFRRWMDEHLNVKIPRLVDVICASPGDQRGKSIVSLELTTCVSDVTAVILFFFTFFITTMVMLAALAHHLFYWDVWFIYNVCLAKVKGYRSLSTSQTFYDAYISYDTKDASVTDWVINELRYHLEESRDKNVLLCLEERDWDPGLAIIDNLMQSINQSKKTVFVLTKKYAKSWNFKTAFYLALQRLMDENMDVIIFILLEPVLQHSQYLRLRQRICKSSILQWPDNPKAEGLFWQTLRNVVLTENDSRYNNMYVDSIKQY

Substance	TLR8 potentiation of R848 sensing, 20-mer ASOs (in words)
mG*mC*mA*mG*mU*C*T*C*C*A*T*G*T*C*C*mC*mA*mG*mG*mC (GCAGUCTCCATGTCCCAGGC; antisense; sugars from the 5' end m5 d10 m5, all phosphorothioate, methylation of C not given here) [[CDKN2B-AS1]2234]	weak potentiator of TLR8

same assay, conditions: HEK-TLR8; 500 nM ASO; fold increase relative to R848 without ASO (Alharbi et al., 2020)

Substance	TLR8-500 nM: averaged NF-κB-Luciferase relative to R848 [fold]
mA*mA*mA*mG*mC*A*G*T*C*T*C*C*A*T*G*mU*mC*mC*mC*mA (mA*mA*mA*mG*mC*dA*dG*dT*dC*dT*dC*dC*dA*dT*dG*mU*mC*mC*mC*mA; antisense) [[CDKN2B-AS1]2237]	3.38
mA*mA*mG*mC*mA*G*T*C*T*C*C*A*T*G*T*mC*mC*mC*mA*mG (mA*mA*mG*mC*mA*dG*dT*dC*dT*dC*dC*dA*dT*dG*dT*mC*mC*mC*mA*mG; antisense) [[CDKN2B-AS1]2236]	2.62
mA*mG*mC*mA*mG*T*C*T*C*C*A*T*G*T*C*mC*mC*mA*mG*mG (AGCAGTCTCCATGTCCCAGG; antisense; sugars from the 5' end m5 d10 m5, all phosphorothioate, methylation of C not given here) [[CDKN2B-AS1]2235]	4.93
mA*mG*mU*mC*mU*C*C*A*T*G*T*C*C*C*A*mG*mG*mC*mC*mU (mA*mG*mU*mC*mU*dC*dC*dA*dT*dG*dT*dC*dC*dC*dA*mG*mG*mC*mC*mU; antisense) [[CDKN2B-AS1]2232]	2.28
mA*mG*mU*mG*mG*C*A*C*A*T*A*C*C*A*C*mA*mC*mC*mC*mU (AGUGGCACATACCACACCCU; antisense; sugars from the 5' end m5 d10 m5, all phosphorothioate, methylation of C not given here) [[CDKN2B-AS1]495]	4.48
mA*mU*mU*mU*mC*C*A*C*A*T*G*C*C*C*A*mG*mU*mG*mU*mU (AUUUCCACATGCCCAGUGUU; antisense; sugars from the 5' end m5 d10 m5, all phosphorothioate, methylation of C not given here) [[CDKN2B-AS1]626]	4.09
mC*mA*mG*mU*mC*T*C*C*A*T*G*T*C*C*C*mA*mG*mG*mC*mC (mC*mA*mG*mU*mC*dT*dC*dC*dA*dT*dG*dT*dC*dC*dC*mA*mG*mG*mC*mC; antisense) [[CDKN2B-AS1]2233]	3.81
mC*mA*mG*mU*mG*T*T*T*T*T*A*A*T*T*T*mU*mG*mU*mA*mG (mC*mA*mG*mU*mG*dT*dT*dT*dT*dT*dA*dA*dT*dT*dT*mU*mG*mU*mA*mG; antisense) [[CDKN2B-AS1]613]	6.73
mC*mU*mU*mG*mU*G*A*A*A*A*G*A*T*T*A*mU*mC*mU*mU*mC (mC*mU*mU*mG*mU*dG*dA*dA*dA*dA*dG*dA*dT*dT*dA*mU*mC*mU*mU*mC) [[CDKN2B-AS1]2139]	6.02
mG*mC*mA*mG*mU*C*T*C*C*A*T*G*T*C*C*mC*mA*mG*mG*mC (GCAGUCTCCATGTCCCAGGC; antisense; sugars from the 5' end m5 d10 m5, all phosphorothioate, methylation of C not given here) [[CDKN2B-AS1]2234]	2.25
mG*mU*mC*mU*mC*C*A*T*G*T*C*C*C*A*G*mG*mC*mC*mU*mC (mG*mU*mC*mU*mC*dC*dA*dT*dG*dT*dC*dC*dC*dA*dG*mG*mC*mC*mU*mC) [[CDKN2B;AS1]2231]	1.25
mG*mU*mG*mU*mC*C*T*T*C*A*T*G*C*T*T*mU*mG*mG*mA*mU (GUGUCCTTCATGCTTUGGAU; antisense; sugars from the 5' end m5 d10 m5, all phosphorothioate, methylation of C not given here) [[CDKN2B-AS1]1415]	1.60
mG*mU*mG*mU*mU*T*T*T*A*A*T*T*T*T*G*mU*mA*mG*mA*mG (mG*mU*mG*mU*mU*dT*dT*dT*dA*dA*dT*dT*dT*dT*dG*mU*mA*mG*mA*mG) [[CDKN2B-AS1]611]	1.88
mU*mA*mU*mU*mU*C*C*A*C*A*T*G*C*C*C*mA*mG*mU*mG*mU (mU*mA*mU*mU*mU*dC*dC*dA*dC*dA*dT*dG*dC*dC*dC*mA*mG*mU*mG*mU; antisense) [[CDKN2B-AS1]627]	3.87
